Where two headings read alike, the source gives them in different places.
Assays:
[1] = test system: 100 A. baumannii strains (50 MDR, 50 non-MDR); assay: MIC broth microdilution at IHMA Europe, panel of 100 strains; assay type: cell-based; conditions: for MIC / MIC50 / MIC90: Acinetobacter baumannii; for MIC50: read-out: MIC 50; for MIC90: read-out: MIC 90
E. coli ATCC 35218 = assay: IHMA QC MIC; assay type: cell-based; conditions: Escherichia coli, ATCC35218; read-out: MIC (QC, repeated tests)
Description: The panel of Hungarian clinical isolates and controls measured following the same method as detailed above, and albeit measurements were carried out in 384-well microtiter plates (Corning Inc.).

CO/N=C(\C(=O)N[C@@H]1C(=O)N2C(C(=O)[O-])=C(C[N+]3(C)CCCC3)CS[C@H]12)c1csc(N)n1 [Cefepime, cefepime]
32 µg/mL: MIC ([1]; A. baumannii IHMA 1926288, Qatar 2018, MDR, read-out: MIC) | MIC ([1]; A. baumannii IHMA 1963732, Turkey 2019, MDR, read-out: MIC) | MIC ([1]; A. baumannii IHMA 1983151, Greece 2019, MDR, read-out: MIC) | MIC ([1]; A. baumannii IHMA 1994284, Italy 2019, MDR, read-out: MIC) | MIC ([1]; A. baumannii IHMA 2020360, Croatia 2019, MDR, read-out: MIC) | MIC ([1]; A. baumannii IHMA 2035089, Serbia 2019, MDR, read-out: MIC) | MIC ([1]; A. baumannii IHMA 2038976, Hungary 2019, MDR, read-out: MIC) | MIC ([1]; A. baumannii IHMA 2177232, Lithuania 2020, MDR, read-out: MIC) | MIC ([1]; A. baumannii IHMA 2196914, South Africa 2020, MDR, read-out: MIC) | MIC ([1]; A. baumannii IHMA 2205144, Korea, South 2020, MDR, read-out: MIC) | MIC ([1]; A. baumannii IHMA 2216586, Taiwan 2020, MDR, read-out: MIC) | MIC ([1]; A. baumannii IHMA 2224017, Panama 2020, MDR, read-out: MIC) | MIC ([1]; A. baumannii IHMA 2274234, South Africa 2020, MDR, read-out: MIC)
1 µg/mL: MIC ([1]; A. baumannii IHMA 1790317, Czech Republic 2018, Non-MDR, read-out: MIC) | MIC ([1]; A. baumannii IHMA 1829500, Georgia 2018, Non-MDR, read-out: MIC) | MIC ([1]; A. baumannii IHMA 1849829, Kuwait 2018, Non-MDR, read-out: MIC) | MIC ([1]; A. baumannii IHMA 1857118, Slovenia 2018, Non-MDR, read-out: MIC) | MIC ([1]; A. baumannii IHMA 1863631, France 2018, Non-MDR, read-out: MIC) | MIC ([1]; A. baumannii IHMA 1884428, Italy 2018, Non-MDR, read-out: MIC) | MIC ([1]; A. baumannii IHMA 1884990, Germany 2018, Non-MDR, read-out: MIC) | MIC ([1]; A. baumannii IHMA 1913773, Kenya 2018, Non-MDR, read-out: MIC) | MIC ([1]; A. baumannii IHMA 1995161, Czech Republic 2019, Non-MDR, read-out: MIC) | MIC ([1]; A. baumannii IHMA 1997936, Morocco 2019, Non-MDR, read-out: MIC) | MIC ([1]; A. baumannii IHMA 1999178, Belgium 2019, Non-MDR, read-out: MIC) | MIC ([1]; A. baumannii IHMA 2014931, South Africa 2019, Non-MDR, read-out: MIC) | MIC ([1]; A. baumannii IHMA 2031511, Greece 2019, Non-MDR, read-out: MIC) | MIC ([1]; A. baumannii IHMA 2034657, Tunisia 2019, Non-MDR, read-out: MIC) | MIC ([1]; A. baumannii IHMA 2035134, Serbia 2019, Non-MDR, read-out: MIC) | MIC ([1]; A. baumannii IHMA 2058329, Slovenia 2019, Non-MDR, read-out: MIC) | MIC ([1]; A. baumannii IHMA 2065587, France 2019, Non-MDR, read-out: MIC) | MIC ([1]; A. baumannii IHMA 2129256, Qatar 2019, Non-MDR, read-out: MIC) | MIC ([1]; A. baumannii IHMA 2180134, Malaysia 2020, Non-MDR, read-out: MIC) | MIC ([1]; A. baumannii IHMA 2183849, Argentina 2020, Non-MDR, read-out: MIC) | MIC ([1]; A. baumannii IHMA 2184382, Japan 2020, Non-MDR, read-out: MIC) | MIC ([1]; A. baumannii IHMA 2193485, Venezuela 2020, Non-MDR, read-out: MIC) | MIC ([1]; A. baumannii IHMA 2215307, Hong Kong 2020, Non-MDR, read-out: MIC) | MIC ([1]; A. baumannii IHMA 2223200, Colombia 2020, Non-MDR, read-out: MIC) | MIC ([1]; A. baumannii IHMA 2275237, Chile 2020, Non-MDR, read-out: MIC) | MIC50 ([1]; non-MDR n = 50)
4 µg/mL: MIC ([1]; A. baumannii IHMA 1795669, Tunisia 2018, Non-MDR, read-out: MIC) | MIC ([1]; A. baumannii IHMA 1830924, United Kingdom 2018, Non-MDR, read-out: MIC) | MIC ([1]; A. baumannii IHMA 1967860, Spain 2019, Non-MDR, read-out: MIC) | MIC ([1]; A. baumannii IHMA 2099294, United Kingdom 2019, Non-MDR, read-out: MIC) | MIC ([1]; A. baumannii IHMA 2224303, Panama 2020, Non-MDR, read-out: MIC) | MIC90 ([1]; non-MDR n = 50)
0.5 µg/mL: MIC ([1]; A. baumannii IHMA 1790916, Romania 2018, Non-MDR, read-out: MIC) | MIC ([1]; A. baumannii IHMA 1900538, Turkey 2018, Non-MDR, read-out: MIC) | MIC ([1]; A. baumannii IHMA 2019315, Romania 2019, Non-MDR, read-out: MIC) | MIC ([1]; A. baumannii IHMA 2206507, Taiwan 2020, Non-MDR, read-out: MIC) | MIC ([1]; A. baumannii IHMA 2239052, Thailand 2020, Non-MDR, read-out: MIC) | MIC ([1]; A. baumannii IHMA 2261633, Canada 2020, Non-MDR, read-out: MIC)
8 µg/mL: MIC ([1]; A. baumannii IHMA 1769910, Israel 2018, Non-MDR, read-out: MIC) | MIC50 ([1]; all isolates n = 100) | MIC ([1]; non-MDR n = 50, read-out: MAX (maximum MIC))
50%: Percentage S ([1]; all n = 100, CLSI breakpoints)
3%: Percentage I ([1]; all n = 100, CLSI breakpoints)
> 32 µg/mL: MIC ([1]; A. baumannii IHMA 1769782, Israel 2018, MDR, read-out: MIC) | MIC ([1]; A. baumannii IHMA 1791877, Israel 2018, MDR, read-out: MIC) | MIC ([1]; A. baumannii IHMA 1792961, Jordan 2018, MDR, read-out: MIC) | MIC ([1]; A. baumannii IHMA 1814276, Lebanon 2018, MDR, read-out: MIC) | MIC ([1]; A. baumannii IHMA 1815198, Kuwait 2018, MDR, read-out: MIC) | MIC ([1]; A. baumannii IHMA 1815856, Israel 2018, MDR, read-out: MIC) | MIC ([1]; A. baumannii IHMA 1849819, Kuwait 2018, MDR, read-out: MIC) | MIC ([1]; A. baumannii IHMA 1971673, Latvia 2019, MDR, read-out: MIC) | MIC ([1]; A. baumannii IHMA 1984665, Lithuania 2019, MDR, read-out: MIC) | MIC ([1]; A. baumannii IHMA 1986738, Turkey 2019, MDR, read-out: MIC) | MIC ([1]; A. baumannii IHMA 1987162, Croatia 2019, MDR, read-out: MIC) | MIC ([1]; A. baumannii IHMA 1993615, Turkey 2019, MDR, read-out: MIC) | MIC ([1]; A. baumannii IHMA 2003279, Turkey 2019, MDR, read-out: MIC) | MIC ([1]; A. baumannii IHMA 2031524, Greece 2019, MDR, read-out: MIC) | MIC ([1]; A. baumannii IHMA 2051503, Serbia 2019, MDR, read-out: MIC) | MIC ([1]; A. baumannii IHMA 2154584, Israel 2020, MDR, read-out: MIC) | MIC ([1]; A. baumannii IHMA 2155340, Kenya 2020, MDR, read-out: MIC) | MIC ([1]; A. baumannii IHMA 2156634, Turkey 2020, MDR, read-out: MIC) | MIC ([1]; A. baumannii IHMA 2156709, Turkey 2020, MDR, read-out: MIC) | MIC ([1]; A. baumannii IHMA 2177489, Lithuania 2020, MDR, read-out: MIC) | MIC ([1]; A. baumannii IHMA 2180142, Malaysia 2020, MDR, read-out: MIC) | MIC ([1]; A. baumannii IHMA 2181370, Morocco 2020, MDR, read-out: MIC) | MIC ([1]; A. baumannii IHMA 2193375, Venezuela 2020, MDR, read-out: MIC) | MIC ([1]; A. baumannii IHMA 2193607, Venezuela 2020, MDR, read-out: MIC) | MIC ([1]; A. baumannii IHMA 2196959, South Africa 2020, MDR, read-out: MIC) | MIC ([1]; A. baumannii IHMA 2203763, Spain 2020, MDR, read-out: MIC) | MIC ([1]; A. baumannii IHMA 2206459, Taiwan 2020, MDR, read-out: MIC) | MIC ([1]; A. baumannii IHMA 2231797, Greece 2020, MDR, read-out: MIC) | MIC ([1]; A. baumannii IHMA 2233099, Guatemala 2020, MDR, read-out: MIC) | MIC ([1]; A. baumannii IHMA 2233430, Kazakhstan 2020, MDR, read-out: MIC) | MIC ([1]; A. baumannii IHMA 2238964, Thailand 2020, MDR, read-out: MIC) | MIC ([1]; A. baumannii IHMA 2274364, South Africa 2020, MDR, read-out: MIC) | MIC ([1]; A. baumannii IHMA 2275751, Jordan 2020, MDR, read-out: MIC) | MIC ([1]; A. baumannii IHMA 2316205, United States 2020, MDR, read-out: MIC) | MIC ([1]; MDR n = 50, read-out: MAX (maximum MIC; all strains inhibited)) | MIC50 ([1]; MDR n = 50) | MIC90 ([1]; MDR n = 50) | MIC ([1]; all isolates n = 100, read-out: MAX (maximum MIC; all strains inhibited)) | MIC90 ([1]; all isolates n = 100)
47%: Percentage R ([1]; all n = 100, CLSI breakpoints)
≤ 0.25 µg/mL: MIC ([1]; A. baumannii IHMA 1926285, Qatar 2018, Non-MDR, read-out: MIC) | MIC ([1]; A. baumannii IHMA 2178574, Ukraine 2020, Non-MDR, read-out: MIC) | MIC ([1]; all isolates n = 100, read-out: MIN (minimum MIC)) | MIC ([1]; non-MDR n = 50, read-out: MIN (minimum MIC)) | MIC (E. coli ATCC 35218)
0%: Percentage S ([1]; MDR n = 50) | Percentage I ([1]; non-MDR n = 50) | Percentage R ([1]; non-MDR n = 50)
6%: Percentage I ([1]; MDR n = 50)

Reference: paper PMC10041525, “New Dual Inhibitors of Bacterial Topoisomerases with Broad-Spectrum Antibacterial Activity and In Vivo Efficacy against Vancomycin-Intermediate Staphylococcus aureus” (Journal of Medicinal Chemistry, 2023)
